From patent publication US10463709B2, “Short synthetic peptide for treating diseases and/or conditions related to angiogenesis” (MacKay Memorial Hospital, priority 2015, dated 2019)
“Also recorded” adds a separate entry of the source. Square brackets hold non-standard residues; d marks the D form. Ends that are not written are not given here.

Columns and labels:
[1] = system: HUVECs; assay: Apoptosis assay (annexin V-FITC); assay type: cell-based; conditions: HUVECs
Method: The percentage of apoptotic HUVEC cells was assayed using TACS annexin V-FITC kit. The percentage of annexin V-positive cells was determined using in situ staining according to the manufacturer's instruction. The cell number was determined by counterstaining with Hoechst 33342. The nuclei in ten randomly selected fields of the three different chambers (˜7200 cells) were counted. Specimens were examined and photographed on a Zeiss epifluorescence microscope (×100, 10 fields/sample). Pictures were recorded on Zeiss software.

[2] = system: STZ-induced diabetic mice; assay: Vascular abnormalities in the retina of diabetic mice; assay type: in vivo
Method: Diabetic mice were generated by a single intraperitoneal injection of streptozotocin (STZ) (150 mg/kg body weight). STZ was freshly prepared in 0.1 M citrate buffer (pH 4.5). After injection, mice were supplied with 10% sucrose overnight to prevent sudden hypoglycemic shock. After 1 week, mice with non-fasting blood glucose levels >500 mg/dl were defined as diabetic and used for the experiments. DMSO Vehicle or the present synthetic peptide (10 mg/kg; n≥3 per peptide) were administered by intraperitoneal injections twice a day. After treatment for 24 h, mice were intraperitoneal injected with 100 mg/kg of BSA-FITC for further 30 min.
To determine vascular lesions (hemorrhaging areas) in retina, the animals were euthanized by CO2 inhalation, and the eyes were enucleated and fixed by 2% paraformaldehyde for 2 hr and flat-mounted onto glass slides to obtain optical sections by an epifluorescence microscopy. Vascular lesions in the retina was scored in all four retinal quadrants of flat mounts by using a 20× objective. Six microscopic fields were sampled in each quadrant in both the central and peripheral retina, and data were presented as the average number of lesions/retina.
Vascular FITC-BSA leakage was determined by a fluorescence spectrofluorometer based on standard curves of FITC-BSA at excitation and emission wavelengths of 488 and 535 nm, respectively, and then normalized to a non-injected control retina. For this analysis, retinas were dissected from treated and untreated diabetic mice after BSA-FITC injections, and each was solubilized in 300 μL ice-cold PBS.
Diabetic retinopathy is characterized by blood-retinal barrier (BRB) breakdown and neurotoxicity. To evaluate the possible beneficial effect of the present synthetic peptides on diabetic retinopathy, STZ-induced diabetic mice were intraperitoneally injected with 7-mer peptide, DMSO vehicle or the control peptide (SEQ ID NO: 22). The retinal vascular abnormality was then monitored by detecting the extravasation of BSA-fluorescein. Results are depicted in FIG. 11.

[3] = system: RPMI8226 cells; assay: MTT assay, VEGF-induced proliferation of RPMI8226 cells; assay type: cell-based
Method: The multiple myeloma line RPMI8226 was cultivated in complex medium (RPMI1640) supplemented with 10% (vol/vol) heat-inactivated fetal calf serum (Invitrogen), 50 μg/mL penicillin, 50 μg/mL streptomycin, and 2 mM L-glutamine at 37° C. in a 5% CO2 atmosphere. RPMI8226 cells were cultured in serum-free RPMI1640 medium for 24 hrs, and then cells were seeded in 48-well culture plates (3×10^5 cells/well) and continued to culture in 0.5 ml fresh serum-free RPMI1640 medium containing 25 μM peptide for another 24 hrs. The cell viability was determined by the MTT assay. Briefly, 50 μL of MTT stock solution (50 μL) (5 mg MTT dissolved in 1 ml of sterile PBS) was added to each culture well. In addition, 50 μL of the MTT stock solution was added in 500 μL of medium as the negative control. The culture plate was incubated at 37° C. for 4 hours. Aliquots (450 μl) from each sample were taken to a new well of 48-well culture plate, adding 100 μL DMSO, mixing thoroughly using the pipette and reacted at 37° C. for 20 min and read absorbance at 570 nm. These synthesized peptides were then subject to MTT assay, in which vascular endothelial growth factor (VEGF) was used as a stimulant to induce cell proliferation. Results are depicted in FIGS. 1 to 4.

[4] = system: human uterine sarcoma cells (MES-SA/Dx5); assay: Tumorigenicity assay, xenografted human uterine sarcoma; assay type: in vivo, nude mice; conditions: 10 mg/kg intraperitoneal every 2 days
Method: MES-SA/Dx5 cells (5×10^6 cells in 0.1 ml) were implanted by subcutaneous injections in the right flank region of female nude mice (n=24, each animal weighted about 20 g before the assay began). The experiments were approved by the Mackay Memorial Hospital Review Board for animal investigation. Treatment was initiated in animals when the tumor volume was above 80 mm^3. Vehicle DMSO, the present synthetic peptide or the control peptide (10 mg/kg) was administered by intraperitoneal injections every 2 days. Tumor progression was monitored for 10 days; size of the tumor was measured every 3 to 5 days with a caliper and the volume was calculated using the following formula: ½×length×width^2.
To this purpose, human uterine sarcoma cells (MES-SA/Dx5) were implanted in nude mice to induce tumor formation, and when the volume of each tumor reached 80 mm^3, animals were then treated with vehicle alone, or the 7-mer peptide at the dose of 10 mg/kg, every 2 days for 10 days. Results are depicted in FIG. 9.

[5] = system: B16-F10 melanoma cells; assay: Experimental pulmonary metastasis in mice; assay type: in vivo, C57BL/6 mice
Method: 2×10^5 B16-F10 cells were suspended in 100 μl PBS and checked for viability using trypan blue staining (>95%). The B16-F10 cells were then injected into the tail vein of the 6-week-old female C57BL/6 mice; while vehicle (DMSO), the present synthetic peptide or the control peptide (10 mg/kg) were administered by intraperitoneal injections every 2 days after the B16-F10 cell injection. Five mice were used for each group. On day 8 after inoculation of cells, the lungs were removed, and the number of visible colonies on the surface of the lungs were counted using a dissecting microscope.
Metastasis is the foremost cause of death from cancer. In this example, to investigate the efficacy of the present synthetic peptide on the metastasis of cancer cells, B16-F10 cells were injected into the tail vein of a mouse, the animal was then treated with the present synthetic peptide (7-mer or 7-mer DD, 10 mg/Kg) by intraperitoneal injections every 2 days. Upon completion of the experiment, the lungs were then removed and the tumor colonies visible to the eyes were then counted. Results are depicted in FIG. 10.

[6] = system: HUVECs; assay: Endothelial cell capillary-like tube formation assay; assay type: cell-based; conditions: VEGF (10 ng/mL) + 25 μM peptide; vs untreated HUVECs
Method: To examine the effect of the present synthetic peptide on in vitro angiogenesis, growth factor-reduced matrigel was pipetted into pre-chilled 24-well plates (150 μl matrigel per well) and polymerized for 45 min at 37° C. […] In this experiment, images were captured using a Cannon camera on Zeiss inverted microscope with magnification ×40 and tube length was quantified using Image analysis software (Image-Pro Plus). The control peptide as used in the present invention has the sequence of DLYRVR (SEQ ID NO: 10).

[7] = system: HUVECs; assay: VEGF-induced HUVEC proliferation assay; assay type: cell-based; conditions: VEGF (10 ng/mL) + 25 μM peptide; vs untreated HUVECs
Method: HUVECs (1×10^5 cells per well of 6-well plate) were grown in Medium 200 with Low Serum Growth Supplement (LSGS Kit, supplement contains 1.9% FBS, 3 ng/ml bFGF, 10 μg/ml heparin, 1 μg/ml hydrocortisone, and 10 ng/ml EGF). Culture plates were coated with 2% gelatin. Cells (passages 4-8) were cultured at 37° C. in a humidified atmosphere of 5% CO2. […]
HUVECs (1×10^5 cells per well of 6-well plate) in Medium 200 supplemented with LSGS Kit were allowed to grow onto 6-well plates coated with 2% gelatin for 24 hours at 37° C. in 5% CO2. The culture medium was then replaced with serum free Medium 200 overnight. […] Then, cells were harvested by trypsin-EDTA and counted using a hemocytometer.

[8] = system: rat aortic ring; assay: Rat aortic ring assay (ex vivo microvessel sprouting); set-up: species or system Sprague Dawley rats; conditions: beta-FGF induced; peptide 50 μM
Method: Thoracic aortas were removed from euthanized 10-week-old male Sprague Dawley rats, and gently stripped off periaortic fibroadipose tissue. Aortas were sectioned to about 2-mm length rings, which were embedded in Matrigel. To induce angiogenesis, human recombinant bFGF (50 ng/ml) or bFGF plus the peptide (50 μM) was added in Matrigel. Gel (200 μl) containing an aortic ring was polymerized in 12-well plates (37° C. for 30 min) and then incubated with 1 ml of Medium 200 supplemented with 100 units/ml penicillin, and […] streptomycin and 2% FBS at 37 ° C. The cultures were propagated at 37 ° C. in a humidified incubator for up to 7 days. Sprouts were recorded using an inverted microscope platform (Leica DM16000B) with bright-field optics. Each ring was scored by three independent observers on a scale 0-4 depending on the degree of sprouting vessel being observed (0=no sprouting, 4=profuse sprouting). The experiment was repeated in triplicates.

[9] = system: rat model of laser-induced wet AMD; assay: Laser-induced wet AMD, rat model; assay type: in vivo; conditions: fluorescein angiography day 14; vs PBS vehicle
Text: Further, the effect of 7-mer or 7-mer DD on rat model of laser-induced wet AMD was also investigated. Fluorescein angiography images were obtained on day 14 after laser burn, and the images were subsequently scored. Results are depicted in FIG. 14.

For “NH2-Asp-Leu-Tyr-Arg-Val-Arg-COOH (DLYRVR; not fully specified (N-terminus, C-terminus); printed as NH2-Asp-Leu-Tyr-Arg-Val-Arg-COOH) [Control Peptide, reference compound]”, the “induction of cell apoptosis” value [1] was “did not result in cell apoptosis”, the “hemorrhage in the retinal parenchyma” value ([2]; intraperitoneal) was “several hemorrhaging areas” and the “biological activity of the analogue relative to the 7-mer (summary statement of the description)” value ([3]; summary of Example 1 findings) was “does not possess any biological function”. For the same substance, the sizes of tumors [4] was “remained relatively unchanged”.

In the case of “NH2-(D-Asp)-Leu-Tyr-Arg-Val-Arg-Ser-COOH (H-[dD]LYRVRS-OH) [7-mer DD]”, the “effect on number of colonies on the surface of the lung / in vivo metastasis” value ([5]; 10 mg/Kg intraperitoneal every 2 days) is reported as “capable of reducing the number of colonies; also recorded: may suppress in vivo metastasis”, the No. lung colonies ([5]; 10 mg/Kg intraperitoneal every 2 days, day 8, n = 5) is reported as 40 ± 15.7 and the “Inhibition (%)” value ([5]; lung colonies vs vehicle, 10 mg/Kg) is reported as 82.3%. The “extravasation of FITC-BSA” value [2] was “may significantly prevent”, the “Fluorescence Intensity (Fold)” value ([2]; leaked FITC-BSA in entire retina, vs vehicle) was 0.38 ± 0.11 Fold and the “Tube length (Fold)” value [6] was 1.33 ± 0.25 Fold. For the same substance, the “Cell number (Fold)” value [7] was 0.90 ± 0.048 Fold, the “dose dependence of inhibitory action on VEGF-induced cell proliferation” value ([3]; 1 to 25 μM, RPMI8226 cells) was “dose dependent manner” and the “level of sprouting microvessels around the aortic ring” value [8] was “inhibited”. The “lesions caused by the laser burn” value [9] was “significantly ameliorated”.
